According to patent US5849709A, “Saccharopeptides and derivatives thereof” (Glycomed Incorporated, priority 1995, dated 1998):

Tests used:
β-glucuronidase = assay: β-Glucuronidase inhibition assay (Sigma kit 325-A, phenolphthalein glucuronic acid substrate); type: biochemical; settings: 15 μl of 50 mM 9β; for A550 value (β-glucuronidase assay): 550 nm, pH 4.5
Protocol: The β-glucuronidase inhibition assay is preferably performed in a solvent. Examples of the solvent include water and a suitable buffer, preferably an acetate or an AMP (2-amino-2-methyl-1-propanol) buffer. Phenolphthalein mono-β-glucuronic acid and a saccharopeptide substrate are treated with the enzyme at room temperature, at a pH of about 4-5. The reaction period ranges from 0.5-2 hours. After completion of the reaction, the enzymic reaction is stopped by adjusting the pH and the absorbance is measured at 550 nm.
Composition 9β was used to measure the β-glucuronidase activity, and the measurement was performed in the same manner as that of the conventional method.
The procedure was carried out according to instructions provided in the Sigma kit 325-A. The reagents used were provided in the kit and the proportions of the reagents used is described in the table below:
______________________________________
*0.2M sodium acetate buffer, pH 4.5 at 25° C.;
^# 30 mM phenolphthalein glucuronic acid (PGA), pH 4.5 at 25°
All components, except PGA, were pre-incubated at room temperature for 30 min, PGA was then added to the mixture. At various time points (0.5, 1 and 2h), 2 μl aliquots were removed and added to 1 ml assay diluent, mixed and absorbance read at 550 nm against the blank (A550). The assay diluent is a mixture of acetate buffer (1.44 ml), water (0.96 ml) and AMP (2-amino-2-methyl-1-propanol) buffer (12 ml, 0.1M AMP, pH 11, containing 0.2% sodium lauryl sulfate).

human recombinant bFGF = human recombinant bFGF (Homo sapiens, UniProt P09038); assay: UC-PBA assay: binding of RO-12 UC cells to bFGF coated micro-titer wells; type: cell-based; settings: for bFGF binding activity in the UC-PBA assay: heparin as positive control
Protocol: The effect of compositions 26 on the binding of RO-12 UC cells to bFGF coated micro-titer wells was determined as described by Ishihara, M., et al., Anal Biochem (1992) 202:310-315. (Also see U.S. Pat. No. 5,296,471, issued Mar. 22, 1994). Bound cells are readily quantitated as total protein.
The assay was run as follows: Fifty microliters of 10 μg/ml human recombinant bFGF was added to wells of a 96-well tissue culture plate and incubated overnight at 4° C. The wells were aspirated with PBS to remove any unbound bFGF, rinsed twice with PBS, and subsequently incubated with PBS containing 5% (v/v) fetal bovine serum for 1 hour at room temperature. RO-12 UC cells were suspended at a density of 3×10^6 cells/ml in PBS containing 5% fetal bovine serum. To this mixture was added the desired amount of sulfated composition, or heparin. They were made up in PBS plus 2.5% fetal bovine serum. A control was also run, containing only PBS plus 2.5% fetal bovine serum. Next, 100 μl of the cell suspension was immediately added to the microtiter wells, and incubated for 5 minutes, after which the wells were washed 3 times with PBS. Finally, the amount of cell protein bound to the wells was determined by dissolving the bound cells in 20 μl of 5% SDS and measuring the protein concentration of the cell lysates. BSA was used as the standard.
(§1) The APTT values of composition 26 were determined as described in U.S. Pat. No. 5,296,471. Table 3 lists the results for the UC-PBA assay, the ACE cell growth inhibition assay, and the APTT values respectively.

APTT = assay: APTT
Protocol: as §1

human recombinant bFGF, sequence (P09038 134-288): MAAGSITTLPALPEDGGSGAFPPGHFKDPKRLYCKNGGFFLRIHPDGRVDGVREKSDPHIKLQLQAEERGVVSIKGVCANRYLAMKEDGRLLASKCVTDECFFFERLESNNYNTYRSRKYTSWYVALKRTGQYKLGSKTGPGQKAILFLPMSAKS

Compound	reduction of β-glucuronidase activity (β-glucuronidase)	A550 value (β-glucuronidase assay) (β-glucuronidase; 0.5 h, room temperature (control 0.104))	A550 value (β-glucuronidase assay) (β-glucuronidase; 1.0 h, room temperature (control 0.199))	A550 value (β-glucuronidase assay) (β-glucuronidase; 2.0 h, room temperature (control 0.396))	IC50 (human recombinant bFGF; RO-12 UC cells, bFGF coated wells) [µM]	bFGF binding activity in the UC-PBA assay (human recombinant bFGF)	APTT value (APTT; as described in U.S. Pat. No. 5,296,471) [%]	APTT value, comparison in words (APTT; versus other compounds of similar size)
[N-]=[N+]=N[C@@H]1O[C@H](C(=O)N[C@@H]2O[C@H](C(=O)O)[C@@H](O)[C@H](O)[C@H]2O)[C@@H](O)[C@H](O)[C@H]1O [Composition 9β, N-(β-D-glucopyran-1-osyluronic acid)-1-azido-1-deoxy-β-D-glucopyranuronamide]	about 85%	0.014	0.030	0.059	–	–	–	–
O=C(CCC(=O)N[C@@H]1O[C@H](COS(=O)(=O)O)[C@@H](O[C@H]2O[C@H](COS(=O)(=O)O)[C@@H](O[C@H]3O[C@H](COS(=O)(=O)O)[C@@H](OS(=O)(=O)O)[C@H](OS(=O)(=O)O)[C@H]3OS(=O)(=O)O)[C@H](OS(=O)(=O)O)[C@H]2OS(=O)(=O)O)[C@H](OS(=O)(=O)O)[C@H]1OS(=O)(=O)O)N[C@@H]1O[C@H](COS(=O)(=O)O)[C@@H](O[C@H]2O[C@H](COS(=O)(=O)O)[C@@H](O[C@H]3O[C@H](COS(=O)(=O)O)[C@@H](OS(=O)(=O)O)[C@H](OS(=O)(=O)O)[C@H]3OS(=O)(=O)O)[C@H](OS(=O)(=O)O)[C@H]2OS(=O)(=O)O)[C@H](OS(=O)(=O)O)[C@H]1OS(=O)(=O)O [Composition 26]	–	–	–	–	0.372	comparable to heparin	14.2	significantly lower than that of other compounds of similar size
Heparin [reference compound]	–	–	–	–	–	inhibits RO-12 UC cell binding	–	–
